From patent US10414811B2, “Protease-resistant lipidated GLP-1 analogs” (MEDIMMUNE LIMITED, priority 2015, dated 2019)
Like-named read-outs stand apart in the source and are kept apart here.

Columns and labels:
Format in all cases: cell-based
[1] = target: T1, human GLP-1 receptor (GLP-1R) (Homo sapiens, UniProt P43220); test: cAMP assay, human GLP-1R cells
T1 construct: expressed in transfected cells
Summary of the method: (§1)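 Peptide-stimulated cAMP measured by two-step HTRF after a 30 min room-temperature incubation with receptor-expressing cells (hGLP-1R, hGIPR at 1×10^5 cells/ml; hGCGR at 2×10^5 cells/ml). Duplicate dilutions; EC50 from 4-parameter logistic fit of % Delta F.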

[2] = target: T2, human glucagon receptor (GCGR) (Homo sapiens, UniProt P47871); test: cAMP assay, human GCGR cells
T2 construct: expressed in transfected cells
T2 sequence (P47871 26-477): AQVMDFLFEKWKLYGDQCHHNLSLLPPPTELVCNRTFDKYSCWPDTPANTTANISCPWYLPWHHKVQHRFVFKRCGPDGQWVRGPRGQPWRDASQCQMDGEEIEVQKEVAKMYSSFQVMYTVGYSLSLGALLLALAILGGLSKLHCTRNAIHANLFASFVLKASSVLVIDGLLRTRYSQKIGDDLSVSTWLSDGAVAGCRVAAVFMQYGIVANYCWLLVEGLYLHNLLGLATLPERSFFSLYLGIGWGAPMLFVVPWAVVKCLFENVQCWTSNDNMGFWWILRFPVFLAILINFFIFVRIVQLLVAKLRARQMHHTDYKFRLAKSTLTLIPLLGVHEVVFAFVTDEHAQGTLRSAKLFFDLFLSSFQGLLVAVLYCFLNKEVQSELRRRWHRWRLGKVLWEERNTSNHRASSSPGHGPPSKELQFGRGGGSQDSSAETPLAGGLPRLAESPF
Summary of the method: as §1

[3] = target: T3, human glucose-dependent insulinotropic peptide receptor (GIPR) (Homo sapiens, UniProt P48546); test: cAMP assay, human GIPR cells
T3 construct: expressed in transfected cells
T3 sequence (P48546 22-466): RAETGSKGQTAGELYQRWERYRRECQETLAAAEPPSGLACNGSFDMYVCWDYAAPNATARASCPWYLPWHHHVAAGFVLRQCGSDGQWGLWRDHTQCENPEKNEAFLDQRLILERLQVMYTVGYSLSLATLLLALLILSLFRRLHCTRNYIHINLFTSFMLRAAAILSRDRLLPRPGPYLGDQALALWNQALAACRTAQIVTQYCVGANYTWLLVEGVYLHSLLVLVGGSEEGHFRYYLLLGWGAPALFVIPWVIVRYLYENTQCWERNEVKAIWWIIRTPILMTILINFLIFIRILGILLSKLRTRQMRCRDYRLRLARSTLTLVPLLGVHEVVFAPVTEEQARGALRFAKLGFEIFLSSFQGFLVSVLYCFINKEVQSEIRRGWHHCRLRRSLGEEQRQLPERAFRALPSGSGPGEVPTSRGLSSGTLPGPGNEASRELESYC
Summary of the method: as §1

GLP-1R (INS1e assay) = target: T4, GLP-1R (INS1e assay) (Rattus norvegicus, UniProt P32301); test: INS1e assay, cAMP activity at GLP-1R; settings: mono-lipidated peptides
T4 construct: endogenous in cells; host or cells: INS-1E cells
T4 sequence (P32301 22-463): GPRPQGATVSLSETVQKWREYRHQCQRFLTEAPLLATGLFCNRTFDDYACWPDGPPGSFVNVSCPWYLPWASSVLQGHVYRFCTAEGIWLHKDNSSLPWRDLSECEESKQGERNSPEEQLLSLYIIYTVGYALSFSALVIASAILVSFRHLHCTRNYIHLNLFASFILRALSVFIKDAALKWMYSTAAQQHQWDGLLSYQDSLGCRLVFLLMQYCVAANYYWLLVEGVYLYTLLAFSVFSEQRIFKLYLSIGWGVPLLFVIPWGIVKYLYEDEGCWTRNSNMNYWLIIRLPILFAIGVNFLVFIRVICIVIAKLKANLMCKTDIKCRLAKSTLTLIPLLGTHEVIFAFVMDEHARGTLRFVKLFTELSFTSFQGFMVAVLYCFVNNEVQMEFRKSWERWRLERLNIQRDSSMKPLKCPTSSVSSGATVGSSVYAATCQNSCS
Summary of the method: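 cAMP was quantified by two-step HTRF, using anti-cAMP cryptate donor and cAMP-d2 acceptor, each diluted 1/20 in conjugate and lysis buffer. EC50 values of the synthetic peptides were derived from the cAMP readout.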

[4] = cAMP assay, first determination (n1), read-out: Primary assay EC50 GLP-1R n1
[5] = cAMP assay, second determination (n2), read-out: Primary assay EC50 GLP-1R n2
[6] = mean of n1 and n2, read-out: Mean pM GLP-1R
[7] = cAMP assay, first determination (n1), read-out: Primary assay EC50 Gluc-R (n1)
[8] = cAMP assay, second determination (n2), read-out: Primary assay EC50 Gluc-R (n2)
[9] = cAMP assay, first determination (n1), read-out: Primary assay EC50 GIP-R (n1)
[10] = cAMP assay, second determination (n2), read-out: Primary assay EC50 GIP-R (n2)
[11] = mean of n1 and n2, read-out: INS1e assay EC50 Mean pM GLP-1R
[12] = replicate n1, read-out: INS1e assay EC50 GLP-1R n1
[13] = replicate n2, read-out: INS1e assay EC50 GLP-1R n2

T1 sequence (P43220 24-463): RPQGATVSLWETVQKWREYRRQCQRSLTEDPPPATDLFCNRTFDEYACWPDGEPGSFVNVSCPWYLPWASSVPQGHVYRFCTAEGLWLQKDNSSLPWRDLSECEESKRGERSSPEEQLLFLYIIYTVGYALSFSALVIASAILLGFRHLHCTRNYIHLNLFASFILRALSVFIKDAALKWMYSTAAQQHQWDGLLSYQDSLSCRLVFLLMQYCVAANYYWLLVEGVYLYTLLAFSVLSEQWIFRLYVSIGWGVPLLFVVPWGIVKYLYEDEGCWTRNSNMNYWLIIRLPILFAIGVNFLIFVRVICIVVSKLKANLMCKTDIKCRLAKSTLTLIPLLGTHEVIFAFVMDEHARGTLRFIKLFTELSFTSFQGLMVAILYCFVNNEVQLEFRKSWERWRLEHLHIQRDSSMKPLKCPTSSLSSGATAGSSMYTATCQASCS

Row | EC50 [1, 4] [pM] | EC50 [1, 5] [pM] | EC50 [1, 6] [pM] | EC50 [2, 7] [nM] | EC50 [2, 8] [nM] | EC50 [3, 9] [nM] | EC50 [3, 10] [nM] | EC50 (GLP-1R (INS1e assay); [11]) [pM] | EC50 (GLP-1R (INS1e assay); [12]) [pM] | EC50 (GLP-1R (INS1e assay); [13]) [pM] | EC50 ([1]; first run (n1), cAMP activity, read-out: Primary assay EC50 GLP-1R n1) [pM] | EC50 ([1]; second run (n2), cAMP activity, read-out: Primary assay EC50 GLP-1R n2) [pM] | EC50 ([2]; first run (n1), cAMP activity of substituted and mono-lipidated peptides, read-out: Primary assay EC50 Gluc-R) [nM] | EC50 ([2]; second run (n2), cAMP activity, read-out: Primary assay EC50 Gluc-R) [nM] | EC50 ([3]; first run (n1), cAMP activity, read-out: Primary assay EC50 GIP-R) [nM] | EC50 ([3]; second run (n2), cAMP activity, read-out: Primary assay EC50 GIP-R) [nM] | Compound
1 | 83 | 70.5 | 77 | ≥ 26 | ≥ 25.6 | ≥ 26 | ≥ 25.6 | 8460 | 5230 | 11700 | – | – | – | – | – | – | CC[C@H](C)[C@H](NC(=O)[C@H](CCCCNC(=O)COCCOCCNC(=O)COCCOCCNC(=O)CC[C@H](NC(=O)CCCCCCCCCCCCCCCCC(=O)O)C(=O)O)NC(=O)[C@H](CCC(=O)O)NC(=O)[C@](C)(CCCCN)NC(=O)[C@H](C)NC(=O)[C@H](C)NC(=O)[C@H](CCC(=O)O)NC(=O)CNC(=O)[C@H](CCC(=O)O)NC(=O)[C@H](CC(C)C)NC(=O)[C@](C)(Cc1ccccc1)NC(=O)[C@H](CO)NC(=O)[C@](C)(CO)NC(=O)[C@@H](NC(=O)[C@H](CC(=O)O)NC(=O)[C@H](CO)NC(=O)[C@@H](NC(=O)[C@](C)(Cc1ccccc1)NC(=O)[C@H](CO)NC(=O)CNC(=O)[C@H](CCC(=O)O)NC(=O)C(C)(C)NC(=O)[C@@H](N)Cc1c[nH]cn1)[C@@H](C)O)C(C)C)C(=O)N[C@@H](C)C(=O)N[C@@](C)(Cc1ccccc1)C(=O)N[C@H](C(=O)N[C@H](C(=O)N[C@@](C)(CCCCN)C(=O)NCC(=O)NCC(N)=O)C(C)C)C(C)C [compound 107]
2 | 1.5 | 2.5 | 2 | ≥ 26 | ≥ 26 | ≥ 26 | ≥ 26 | – | 21.4 | – | – | – | – | – | – | – | CCCCCCCCCCCCCCCCCC(=O)NCCOCCOCC(=O)NCCOCCOCC(=O)NCCOCCOCC(=O)NCCCC[C@H](NC(=O)[C@H](C)NC(=O)[C@H](C)NC(=O)[C@H](CCC(=O)O)NC(=O)CNC(=O)[C@H](CCC(=O)O)NC(=O)[C@H](CC(C)C)NC(=O)[C@](C)(Cc1ccccc1)NC(=O)[C@H](CO)NC(=O)[C@H](CO)NC(=O)[C@@H](NC(=O)[C@H](CC(=O)O)NC(=O)[C@H](CO)NC(=O)[C@@H](NC(=O)[C@](C)(Cc1ccccc1)NC(=O)[C@H](CO)NC(=O)CNC(=O)[C@H](CCC(=O)O)NC(=O)C(C)(C)NC(=O)[C@@H](N)Cc1c[nH]cn1)[C@@H](C)O)C(C)C)C(=O)N[C@@H](CCC(=O)O)C(=O)N[C@@](C)(Cc1ccccc1)C(=O)N[C@H](C(=O)N[C@@H](C)C(=O)N[C@@](C)(Cc1ccccc1)C(=O)N[C@H](C(=O)N[C@H](C(=O)N[C@@](C)(CCCCN)C(=O)NCC(=O)NCC(N)=O)C(C)C)C(C)C)[C@@H](C)CC [compound 52]
3 | – | – | 7.2 | – | – | – | – | 44.1 | 39.7 | 48.5 | 9.7 | 4.7 | ≥ 26 | ≥ 26 | ≥ 26 | ≥ 26 | CCCCCCCCCCCCCCCCCC(=O)NCCOCCOCC(=O)NCCOCCOCC(=O)NCCOCCOCC(=O)NCCCC[C@H](NC(=O)[C@@H](NC(=O)[C@@H](NC(=O)[C@](C)(Cc1ccccc1)NC(=O)[C@H](C)NC(=O)[C@@H](NC(=O)[C@](C)(Cc1ccccc1)NC(=O)[C@H](CCC(=O)O)NC(=O)[C@](C)(CCCCN)NC(=O)[C@H](C)NC(=O)[C@H](C)NC(=O)[C@H](CCC(=O)O)NC(=O)CNC(=O)[C@H](CCC(=O)O)NC(=O)[C@H](CC(C)C)NC(=O)[C@](C)(Cc1ccccc1)NC(=O)[C@H](CO)NC(=O)[C@](C)(CO)NC(=O)[C@@H](NC(=O)[C@H](CC(=O)O)NC(=O)[C@H](CO)NC(=O)[C@@H](NC(=O)[C@](C)(Cc1ccccc1)NC(=O)[C@H](CO)NC(=O)CNC(=O)[C@H](CCC(=O)O)NC(=O)C(C)(C)NC(=O)[C@@H](N)Cc1c[nH]cn1)[C@@H](C)O)C(C)C)[C@@H](C)CC)C(C)C)C(C)C)C(=O)NCC(=O)NCC(N)=O [compound 190]
